Test results as given in PMC6150298, “Natural Deep Eutectic Solvents (NADES) to Enhance Berberine Absorption: An In Vivo Pharmacokinetic Study” (Molecules : A Journal of Synthetic Chemistry and Natural …, 2017).

Columns and labels:
[1] = Solubility of berberine in NADES and reference solvents (HPLC-DAD); assay type: physicochemical
Protocol: Samples were placed on a magnetic stirrer (Stuart, Bibby Scientific Ltd., Stone, Staffordshire, UK) at 22 °C for 1 h, then centrifuged for 21 min at 13,000 rpm with a 5415 R centrifuge (Eppendorf, Hamburg, Germany). For quantitative measurement of solubilized berberine, a portion (100 μL) of the clear supernatant obtained after centrifugation was diluted 1:5 (v/v) in ethanol.
For quantification, stock standard solution of berberine (100 μg/mL) was prepared dissolving the analytical standard in methanol using an ultrasonic bath. A calibration curve was obtained injecting standard solutions of berberine at different concentrations, namely 50, 25, 10, 5 and 1 μg/mL. The following calibration curve was obtained: […] (R^2 = 0.9997). The Limit of Quantification (LOQ) was 1 μg/mL.
For HPLC-DAD analysis, an Agilent series 1260 HPLC instrument (Agilent, Cernusco Sul Naviglio, MI, Italy) equipped with a quaternary pump, a diode-array detector, an auto sampler and a column oven compartment was used. Analyses were performed on Eclipse XDB C8 column (5 μm, 4.6 mm × 150 mm, Agilent). The mobile phase was (A) water–formic acid (99:1 v/v) and (B) acetonitrile. A gradient program was used as follows: 0 → 11th min: A:B (90:10) → A:B (0:100) 11 → 12th min: A:B (0:100) → A:B (0:100) 12 → 12, 10th min: A:B (0:100) → A:B (90:10) 12, 10 → 14th min: A:B (90:10) → A:B (90:10). The mobile phase flow rate was 1 mL/min and the injection volume was 10 μL. The chromatogram was recorded at 350 nm and spectral data for all peaks were obtained in the range of 190–400 nm. The retention time of berberine under these analysis conditions was 6.16 min.

rat = conditions: cited from earlier work
[2] = parameters: method as in PMID 26092760; conditions: rats, single oral administration of berberine 200 mg/kg; cited from earlier work
[3] = human subjects, single oral dose of 500 mg of berberine hydrochloride, cited from earlier work; for time after which the plasma level reaches a plateau: plateau persisted up to 24 h
mice = conditions: cited from earlier work

In the case of Ethanol, the “Berberine Solubility at 22 °C” value [1] is reported as 2750 ± 50 µg/mL.

In the case of O=C(O)CC(O)C(=O)O (centres unmarked) [malic acid], the LD50 (rat) is given as 1600 mg/kg.

In the case of CC(O)C(=O)O (centres unmarked) [lactic acid], the LD50 (rat) is given as 3543 mg/kg.

For COc1ccc2cc3[n+](cc2c1OC)CCc1cc2c(cc1-3)OCO2 [berberine, Berberine], the solubility at 1 h ([1]; water, 22 °C) is given as 2100 µg/mL, the “total recovery of native compounds” value [2] is given as 22.83% and the plasma levels [3] is given as “lower than 0.1 nM”. The “time after which the plasma level reaches a plateau” value [3] was “one”.

In the case of NC(N)=O [urea], the LD50 (mice) is given as 11,000 mg/kg.

In the case of COc1cc2c(cc1O)CC[n+]1cc3c(OC)c(OC)ccc3cc1-2 [jatrorrhizine], the plasma levels [3] is listed as “lower than 0.1 nM” and the “time after which the plasma level reaches a plateau” value [3] is listed as 2 h.

For Water, the “Berberine Solubility at 22 °C” value [1] was 2100 ± 50 µg/mL.
